Experimental data taken from patent US8530504B2, “Pyrazolothiazole compound” (Eisai R&D Management Co., Ltd., priority 2009, dated 2013).
pIC50: −log10 of the molar value.

Target: human CRFR1 (Homo sapiens (Human), UniProt P34998)
Test: CRFR1 Binding Test;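 further: nonspecific binding was determined with a 4,000-fold excess of unlabelled sauvagine and subtracted from every reading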
Settings: competition with 100 pM 125I-CRF, SPA method, membrane fraction of human CRFR1-expressing HEK293 cells; read-out: CRF1 receptor binding capacity IC50

human CRFR1, sequence (P34998 24-415): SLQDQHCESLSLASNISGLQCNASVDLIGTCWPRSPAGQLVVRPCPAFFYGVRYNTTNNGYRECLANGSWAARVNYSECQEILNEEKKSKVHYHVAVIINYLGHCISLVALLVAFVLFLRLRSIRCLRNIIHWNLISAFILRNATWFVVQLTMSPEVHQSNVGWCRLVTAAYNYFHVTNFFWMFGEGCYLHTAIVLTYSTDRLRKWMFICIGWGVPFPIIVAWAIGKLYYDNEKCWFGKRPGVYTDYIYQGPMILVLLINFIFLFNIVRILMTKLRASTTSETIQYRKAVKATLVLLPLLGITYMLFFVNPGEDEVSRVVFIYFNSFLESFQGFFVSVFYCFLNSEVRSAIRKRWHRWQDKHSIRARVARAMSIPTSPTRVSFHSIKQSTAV

Row | Compound | pIC50
1 | COCc1cc(OC)c(-c2csc3c(N(CCC(C)OC)CC4CC4)c(OC)nn23)c(OC)c1 (centres unmarked) [Example 50, N-(Cyclopropylmethyl)-3-[2,6-dimethoxy-4-(methoxymethyl)phenyl]-6-methoxy-N-(3-methoxybutyl)pyrazolo[5,1-b][1,3]thiazole-7-amine] | 7.06
2 | COCc1cc(OC)c(-c2csc3c(N(CCCF)Cc4ccncc4)c(OC)nn23)c(OC)c1 [Example 70, 3-[2,6-Dimethoxy-4-(methoxymethyl)phenyl]-N-(3-fluoropropyl)-6-methoxy-N-(pyridin-4-ylmethyl)-pyrazolo[5,1-b][1,3]thiazole-7-amine] | 7.21
3 | COCc1cc(OC)c(-c2csc3c(N(CC4CC4)C4CCOC4)c(OC)nn23)c(OC)c1 (centres unmarked) [Example 13, N-(Cyclopropylmethyl)-3-[2,6-dimethoxy-4-(methoxymethyl)phenyl]-6-methoxy-N-(tetrahydrofuran-3-yl)pyrazolo[5,1-b][1,3]thiazole-7-amine] | 7.25
4 | CCN(c1c(OC)nn2c(-c3c(OC)cc(C4CC4)cc3OC)csc12)C1CCOCC1 [Example 64, 3-(4-Cyclopropyl-2,6-dimethoxyphenyl)-N-ethyl-6-methoxy-N-(tetrahydro-2H-pyran-4-yl)pyrazolo[5,1-b][1,3]thiazole-7-amine] | 7.21
5 | CCCN(c1c(OC)nn2c(-c3c(OC)cc(C)cc3OC)csc12)C1CCOCC1 [Example 17, 3-(2,6-Dimethoxy-4-methylphenyl)-6-methoxy-N-propyl-N-(tetrahydro-2H-pyran-4-yl)pyrazolo[5,1-b][1,3]thiazole-7-amine] | 7.25
6 | COCc1cc(OC)c(-c2csc3c(N(CC4CCOC4)CC4CC(F)(F)C4)c(OC)nn23)c(OC)c1 (centres unmarked) [Example 37, N-[(3,3-Difluorocyclobutyl)methyl]-3-[2,6-dimethoxy-4-(methoxymethyl)phenyl]-6-methoxy-N-(tetrahydrofuran-3-ylmethyl)pyrazolo[5,1-b][1,3]thiazole-7-amine] | 7.02
7 | COCCN(CC1CCC1)c1c(OC)nn2c(-c3c(OC)cc(COC)cc3OC)csc12 [Example 48, N-(Cyclobutylmethyl)-3-[2,6-dimethoxy-4-(methoxymethyl)phenyl]-6-methoxy-N-(2-methoxyethyl)pyrazolo[5,1-b][1,3]thiazole-7-amine] | 7.60
8 | CCCCN(CCOC)c1c(OC)nn2c(-c3c(OC)cc(COCC)cc3OC)csc12 [Example 41, N-Butyl-3-[4-(ethoxymethyl)-2,6-dimethoxyphenyl]-6-methoxy-N-(2-methoxyethyl)pyrazolo[5,1-b][1,3]thiazole-7-amine] | 7.60
9 | COCCN(c1c(OC)nn2c(-c3c(OC)cc(C#N)cc3OC)csc12)C1CCCC1 [Example 74, 4-{7-[Cyclopentyl(2-methoxyethyl)amino]-6-methoxypyrazolo[5,1-b][1,3]thiazol-3-yl}-3,5-dimethoxybenzonitrile] | 7.28
10 | COCCCN(c1c(OC)nn2c(-c3c(Cl)cc(COC)cc3OC)csc12)C1CCCC1 [Example 73, 3-[2-Chloro-6-methoxy-4-(methoxymethyl)phenyl]-N-cyclopentyl-6-methoxy-N-(3-methoxypropyl)pyrazolo[5,1-b][1,3]thiazole-7-amine] | 7.18
11 | CCCN(CC1CCOC1)c1c(OCC)nn2c(-c3c(OC)cc(COC)cc3OC)csc12 (centres unmarked) [Example 84, 3-[2,6-Dimethoxy-4-(methoxymethyl)phenyl]-6-ethoxy-N-propyl-N-(tetrahydrofuran-3-ylmethyl)pyrazolo[5,1-b][1,3]thiazole-7-amine] | 7.29
12 | COCc1cc(OC)c(-c2csc3c(N(CCCF)Cc4ccccn4)c(OC)nn23)c(OC)c1 [Example 72, 3-[2,6-Dimethoxy-4-(methoxymethyl)phenyl]-N-(3-fluoropropyl)-6-methoxy-N-(pyridin-2-ylmethyl)-pyrazolo[5,1-b][1,3]thiazole-7-amine] | 7.12
13 | COc1cc(C)cc(OC)c1-c1csc2c(N(CC3CC3)C3CCOCC3)c(OC)nn12 [Example 25, N-(Cyclopropylmethyl)-3-(2,6-dimethoxy-4-methylphenyl)-6-methoxy-N-(tetrahydro-2H-pyran-4-yl)pyrazolo[5,1-b][1,3]thiazole-7-amine] | 7.37
14 | COCc1cc(OC)c(-c2csc3c(N(CC4CCC4)CC4C5COCC54)c(OC)nn23)c(OC)c1 (single isomer, unassigned; diastereomer 1) [Example 98, N-(Cyclobutylmethyl)-3-[2,6-dimethoxy-4-(methoxymethyl)phenyl]-6-methoxy-N-[3-oxabicyclo[3.1.0]hex-6-ylmethyl]-pyrazolo[5,1-b][1,3]thiazole-7-amine (diastereomer 1)] | 7.06
15 | COCc1cc(OC)c(-c2c(SC)sc3c(N(CC4CCOCC4)CC4CC4)c(C)nn23)c(OC)c1 [Example 1, N-(Cyclopropylmethyl)-3-[2,6-dimethoxy-4-(methoxymethyl)phenyl]-6-methyl-2-(methylthio)-N-(tetrahydro-2H-pyran-4-ylmethyl)pyrazolo[5,1-b][1,3]thiazole-7-amine] | 7.03
16 | CCCCN(c1c(OC)nn2c(-c3c(OC)cc(C=O)cc3OC)csc12)C1CCOCC1 [Example 103] | 7.00
17 | CCCN(c1c(OCC)nn2c(-c3c(OC)cc(COC)cc3OC)csc12)C1CCOCC1 [Example 79, 3-[2,6-Dimethoxy-4-(methoxymethyl)phenyl]-6-ethoxy-N-propyl-N-(tetrahydro-2H-pyran-4-yl)pyrazolo[5,1-b][1,3]thiazole-7-amine] | 7.12
18 | COCc1cc(OC)c(-c2csc3c(N(CCOC(C)C)CC4CC4)c(OC)nn23)c(OC)c1 [Example 49, N-(Cyclopropylmethyl)-3-[2,6-dimethoxy-4-(methoxymethyl)phenyl]-N-(2-isopropoxyethyl)-6-methoxypyrazolo[5,1-b][1,3]thiazole-7-amine] | 7.23
19 | CCN(c1c(OC)nn2c(-c3c(OC)cc(COC)cc3OC)csc12)C1CCCC1 [Example 66, N-Cyclopentyl-3-[2,6-dimethoxy-4-(methoxymethyl)phenyl]-N-ethyl-6-methoxypyrazolo[5,1-b][1,3]thiazole-7-amine] | 7.59
20 | COCCN(c1c(OC)nn2c(-c3c(OC)cc(COC)cc3OC)csc12)C1CCCC1 [Example 53, N-Cyclopentyl-3-[2,6-dimethoxy-4-(methoxymethyl)phenyl]-6-methoxy-N-(2-methoxyethyl)pyrazolo[5,1-b][1,3]thiazole-7-amine] | 7.74
21 | COCc1cc(OC)c(-c2csc3c(N(CCCF)c4cccnc4)c(OC)nn23)c(OC)c1 [Example 88, 3-[2,6-Dimethoxy-4-(methoxymethyl)phenyl]-N-(3-fluoropropyl)-6-methoxy-N-pyridin-3-ylpyrazolo[5,1-b][1,3]thiazole-7-amine] | 7.28
22 | CCCCN(c1c(SC)nn2c(-c3c(OC)cc(COC)cc3OC)csc12)C1CCOCC1 [Example 106, N-Butyl-3-[2,6-dimethoxy-4-(methoxymethyl)phenyl]-6-(methylthio)-N-(tetrahydro-2H-pyran-4-yl)pyrazolo[5,1-b][1,3]thiazole-7-amine] | 7.08
23 | CCOc1nn2c(-c3c(OC)cc(COC)cc3OC)csc2c1N(CC1CCC1)C1CCOCC1 [Example 83, N-(Cyclobutylmethyl)-3-[2,6-dimethoxy-4-(methoxymethyl)phenyl]-6-ethoxy-N-(tetrahydro-2H-pyran-4-yl)-pyrazolo[5,1-b][1,3]thiazole-7-amine] | 7.33
